According to ChEMBL document CHEMBL1926524, “Cyclolobatriene, a novel prenylated germacrene diterpene, from the soft coral Lobophytum pauciflorum” (Bioorg Med Chem, 2012):

Test system: A-431
Test: Cytotoxicity against human A431 cells after 4 days by coulter counting
Type: functional, cell-based
Settings: A-431, 96 h

Row | SMILES | IC50 [nM]
1 | C/C1=C\C[C@@H](/C(C)=C/C=C/C(C)(C)O)CC/C(C)=C/CC1 [EUNICOL] | 350
2 | C=C[C@@]1(C)CC[C@H](C2=CC[C@H](C(C)(C)O)OC2)C[C@@H]1C(=C)C [LOBATRIENE] | 410
3 | C/C1=C\C[C@@H](C2=CC[C@H](C(C)(C)O)OC2)CC/C(C)=C/CC1 [CYCLOLOBATRIENE] | 640
4 | C=C[C@@]1(C)CC[C@H](/C(C)=C/C=C/C(C)(C)O)C[C@@H]1C(=C)C [FUSCOL] | 520
